Several values for one entry are separate records, joined by “and”; a condition that tells them apart may be missing. Equal entries are not always repeated. Inconclusive results and toxic doses are left out.
Tested on: CD2F1 mice, intracerebral L1210 leukemia, survival T/C
Experiment: NCI In Vivo Anticancer Drug Screen. Data for tumor model L1210 Leukemia (intracerebral) in CD2F1 (CDF1) mice
Conditions: higher = longer survival
Description: The antitumor activity of compounds was measured in mice bearing transplantable tumors. Survival or tumor size were measured and the results are expressed as the measurement made in the treated group (T) divided by the measurement made in the vehicle treated control group (C). The tumor model used in this assay is L1210 Leukemia (intracerebral) in CD2F1 (CDF1) mice

[1] = endpoint: mean survival time, dose: 50.0 mg/kg/injection, schedule: Q01DX009 (ip), vehicle: saline
[2] = endpoint: mean survival time, dose: 100.0 mg/kg/injection, schedule: Q01DX009 (ip), vehicle: saline
[3] = endpoint: mean survival time, dose: 200.0 mg/kg/injection, schedule: Q01DX009 (ip), vehicle: saline

C[C@@H]1C[C@@H]([C@H](O)CC2CC(=O)NC(=O)C2)C(=O)[C@@H](C)C1
T/C (endpoint: mean survival time, dose: 10.0 mg/kg/injection, schedule: Q01DX009 (ip), vehicle: saline): 114 % of control
T/C (endpoint: mean survival time, dose: 20.0 mg/kg/injection, schedule: Q01DX009 (ip), vehicle: saline): 101 % of control
T/C (endpoint: mean survival time, dose: 40.0 mg/kg/injection, schedule: Q01DX009 (ip), vehicle: saline): 114 % of control
T/C (endpoint: mean survival time, dose: 80.0 mg/kg/injection, schedule: Q01DX009 (ip), vehicle: saline): 106 % of control

CC(=O)c1ccc(N=NN(C)C)cc1
T/C (endpoint: mean survival time, dose: 5.0 mg/kg/injection, schedule: Q01DX007 (ip), vehicle: other): 107 % of control
T/C (endpoint: mean survival time, dose: 10.0 mg/kg/injection, schedule: Q01DX007 (ip), vehicle: other): 89 % of control
T/C (endpoint: mean survival time, dose: 20.0 mg/kg/injection, schedule: Q01DX007 (ip), vehicle: other): 97 % of control
T/C (endpoint: mean survival time, dose: 40.0 mg/kg/injection, schedule: Q01DX007 (ip), vehicle: other): 103 % of control
T/C (endpoint: mean survival time, dose: 60.0 mg/kg/injection, schedule: Q01DX007 (ip), vehicle: other): 93 % of control

COc1cc2c(c3c1c(=O)c1ccccc1n3C)C=CC(C)(C)O2
T/C (endpoint: median survival time, dose: 128.0 mg/kg/injection, schedule: Q01DX005 (ip), vehicle: Klucel (hydroxypropylcellulose) (HPC)): 108 % of control

N=C(N)SCc1c2ccccc2c(CSC(=N)N)c2ccccc12
T/C [1]: 103 % of control
T/C [2]: 124 % of control
T/C [3]: 88 % of control
T/C (endpoint: median survival time, dose: 2.5 mg/kg/injection, schedule: Q01DX005 (ip), vehicle: Klucel (hydroxypropylcellulose) (HPC)): 93 % of control and 98 % of control
T/C (endpoint: median survival time, dose: 5.0 mg/kg/injection, schedule: Q01DX005 (ip), vehicle: Klucel (hydroxypropylcellulose) (HPC)): 97 % of control and 112 % of control
T/C (endpoint: median survival time, dose: 10.0 mg/kg/injection, schedule: Q01DX005 (ip), vehicle: Klucel (hydroxypropylcellulose) (HPC)): 103 % of control and 115 % of control
T/C (endpoint: median survival time, dose: 20.0 mg/kg/injection, schedule: Q01DX005 (ip), vehicle: Klucel (hydroxypropylcellulose) (HPC)): 103 % of control and 112 % of control

C[C@H](CN1CC(=O)NC(=O)C1)N1CC(=O)NC(=O)C1
T/C (endpoint: mean survival time, dose: 64.0 mg/kg/injection, schedule: Q01DX009 (ip), vehicle: water): 159 % of control
T/C (endpoint: mean survival time, dose: 128.0 mg/kg/injection, schedule: Q01DX009 (ip), vehicle: water): 109 % of control
T/C (endpoint: mean survival time, dose: 256.0 mg/kg/injection, schedule: Q01DX009 (ip), vehicle: water): 90 % of control

O=S1(=O)CS(=O)(=O)OCCO1
T/C (endpoint: median survival time, dose: 3.13 mg/kg/injection, schedule: Q01DX009 (ip), vehicle: Klucel (hydroxypropylcellulose) (HPC)): 122 % of control
T/C (endpoint: median survival time, dose: 12.5 mg/kg/injection, schedule: Q01DX009 (ip), vehicle: Klucel (hydroxypropylcellulose) (HPC)): 170 % of control
T/C (endpoint: median survival time, dose: 25.0 mg/kg/injection, schedule: Q01DX009 (ip), vehicle: Klucel (hydroxypropylcellulose) (HPC)): 182 % of control
T/C (endpoint: median survival time, dose: 50.0 mg/kg/injection, schedule: Q01DX009 (ip), vehicle: Klucel (hydroxypropylcellulose) (HPC)): 200 % of control

CC1(C)N=C(N)N=C(N)N1c1ccc(OCc2ccc(C(=O)Nc3cccc(S(=O)(=O)F)c3)cc2)c(Cl)c1
T/C (endpoint: mean survival time, dose: 50.0 mg/kg/injection, schedule: Q04DX003 (ip), vehicle: saline): 111 % of control
T/C (endpoint: mean survival time, dose: 100.0 mg/kg/injection, schedule: Q04DX003 (ip), vehicle: saline): 111 % of control

O=NN(CCCl)C(=O)NC1C(O)C(O)C(O)C(O)C1O (stereo not drawn)
T/C (endpoint: mean survival time, dose: 9.0 mg/kg/injection, schedule: Q01DX001 (ip), vehicle: saline): 110 % of control
T/C (endpoint: mean survival time, dose: 13.0 mg/kg/injection, schedule: Q01DX001 (ip), vehicle: saline): 117 % of control
T/C (endpoint: mean survival time, dose: 44.0 mg/kg/injection, schedule: Q01DX001 (ip), vehicle: saline): 115 % of control
T/C (endpoint: mean survival time, dose: 67.0 mg/kg/injection, schedule: Q01DX001 (ip), vehicle: saline): 95 % of control

N[C@H](C(=O)O)[C@@H]1CC(Cl)=NO1
T/C (endpoint: mean survival time, dose: 16.0 mg/kg/injection, schedule: Q01DX009 (ip), vehicle: saline): 124 % of control
T/C (endpoint: mean survival time, dose: 32.0 mg/kg/injection, schedule: Q01DX009 (ip), vehicle: saline): 101 % of control

CN(N=O)C(=O)N[C@@H](C=O)[C@@H](O)[C@H](O)[C@H](O)CO
T/C (endpoint: mean survival time, dose: 50.0 mg/kg/injection, schedule: Q01DX005 (ip), vehicle: saline): 100 % of control
T/C [1]: 102 % of control
T/C (endpoint: mean survival time, dose: 100.0 mg/kg/injection, schedule: Q01DX005 (ip), vehicle: saline): 102 % of control
T/C [2]: 100 % of control
T/C (endpoint: mean survival time, dose: 200.0 mg/kg/injection, schedule: Q01DX005 (ip), vehicle: saline): 104 % of control
T/C [3]: 100 % of control
T/C (endpoint: mean survival time, dose: 400.0 mg/kg/injection, schedule: Q01DX009 (ip), vehicle: saline): 95 % of control
T/C (endpoint: median survival time, dose: 75.0 mg/kg/injection, schedule: Q01DX001 (ip), vehicle: DMSO): 102 % of control
T/C (endpoint: median survival time, dose: 75.0 mg/kg/injection, schedule: Q01DX001 (ip), vehicle: other): 103 % of control
T/C (endpoint: median survival time, dose: 75.0 mg/kg/injection, schedule: Q01DX001 (oral), vehicle: saline): 109 % of control
T/C (endpoint: median survival time, dose: 150.0 mg/kg/injection, schedule: Q01DX001 (ip), vehicle: DMSO): 114 % of control
T/C (endpoint: median survival time, dose: 150.0 mg/kg/injection, schedule: Q01DX001 (ip), vehicle: other): 107 % of control
T/C (endpoint: median survival time, dose: 150.0 mg/kg/injection, schedule: Q01DX001 (oral), vehicle: saline): 100 % of control
T/C (endpoint: median survival time, dose: 300.0 mg/kg/injection, schedule: Q01DX001 (ip), vehicle: DMSO): 114 % of control
T/C (endpoint: median survival time, dose: 300.0 mg/kg/injection, schedule: Q01DX001 (ip), vehicle: other): 109 % of control
T/C (endpoint: median survival time, dose: 300.0 mg/kg/injection, schedule: Q01DX001 (oral), vehicle: saline): 113 % of control
T/C (endpoint: median survival time, dose: 500.0 mg/kg/injection, schedule: Q01DX001 (ip), vehicle: DMSO): 112 % of control
T/C (endpoint: median survival time, dose: 500.0 mg/kg/injection, schedule: Q01DX001 (ip), vehicle: other): 103 % of control
T/C (endpoint: median survival time, dose: 500.0 mg/kg/injection, schedule: Q01DX001 (oral), vehicle: saline): 100 % of control

O=C(Nc1ccccc1)c1c(O)[nH]c(=S)[nH]c1=O
T/C (endpoint: median survival time, dose: 12.5 mg/kg/injection, schedule: Q01DX009 (ip), vehicle: saline with Tween-80): 94 % of control
T/C (endpoint: median survival time, dose: 25.0 mg/kg/injection, schedule: Q01DX009 (ip), vehicle: saline with Tween-80): 98 % of control
T/C (endpoint: median survival time, dose: 50.0 mg/kg/injection, schedule: Q01DX009 (ip), vehicle: saline with Tween-80): 113 % of control

CNc1nc(N(C)C)nc(N(C)C)n1
T/C (endpoint: median survival time, dose: 12.5 mg/kg/injection, schedule: Q01DX009 (ip), vehicle: saline): 98 % of control and 114 % of control

CC(CN1CC(=O)NC(=O)C1)N1CC(=O)NC(=O)C1 (stereo not drawn)
T/C (endpoint: mean survival time, dose: 8.0 mg/kg/injection, schedule: Q01DX009 (ip), vehicle: Klucel (hydroxypropylcellulose) (HPC)): 123 % of control
T/C (endpoint: mean survival time, dose: 32.0 mg/kg/injection, schedule: Q01DX009 (ip), vehicle: Klucel (hydroxypropylcellulose) (HPC)): 152 % of control
T/C (endpoint: mean survival time, dose: 64.0 mg/kg/injection, schedule: Q01DX009 (ip), vehicle: Klucel (hydroxypropylcellulose) (HPC)): 163 % of control
T/C (endpoint: mean survival time, dose: 200.0 mg/kg/injection, schedule: Q04DX003 (ip), vehicle: steriod suspending solution): 162 % of control

COc1ccc2cc1Oc1ccc(cc1)C[C@H]1c3cc(c(OC)cc3CCN1C)Oc1c(OC)c(OC)cc3c1[C@H](C2)N(C)CC3
T/C (endpoint: median survival time, dose: 50.0 mg/kg/injection, schedule: Q01DX005 (ip), vehicle: Klucel (hydroxypropylcellulose) (HPC)): 90 % of control and 91 % of control
T/C (endpoint: median survival time, dose: 100.0 mg/kg/injection, schedule: Q01DX005 (ip), vehicle: Klucel (hydroxypropylcellulose) (HPC)): 95 % of control and 98 % of control
T/C (endpoint: median survival time, dose: 200.0 mg/kg/injection, schedule: Q01DX005 (ip), vehicle: Klucel (hydroxypropylcellulose) (HPC)): 95 % of control and 104 % of control
T/C (endpoint: median survival time, dose: 400.0 mg/kg/injection, schedule: Q01DX005 (ip), vehicle: Klucel (hydroxypropylcellulose) (HPC)): 101 % of control
